In PMC6540907, “The nuclear export inhibitor aminoratjadone is a potent effector in extracellular-targeted drug conjugates” (Chemical Science, 2019):

Tests used:
[1] = set-up: method as in PMID 8761384; conditions: standalone drug; cited from earlier work
nuclear export = test system: nuclear export; set-up: method as in PMID 20055390, PMID 26833854; conditions: cited from earlier work
CRM1 [2] = molecular target: T1, CRM1 (Homo sapiens, UniProt O14980); test: Nuclear export inhibition, fluorescent translocation biosensor in recombinant HeLa cells; format: cell-based; set-up: This cellular assay uses HeLa cells that express a recombinant fusion protein; endogenous in cells; host or cells: HeLa cells stably expressing the NLS-GST-GFP-RevNES translocation biosensor (HeLaRevBio); conditions: nuclear export inhibition IC50, HeLa cells expressing translocation biosensor, 1 h incubation
CRM1 [3] = molecular target: T1, CRM1; test: Streptavidin pull-down from HeLa cell lysate with LC-MS/MS identification; format: binding; set-up: endogenous in cells; host or cells: HeLa cells (treated live with biotin conjugate 36, then lysed); conditions: HeLa cells, 100 ng mL–1, 5 h; control additionally incubated with an excess of 1
Description: To verify that this activity was indeed CRM1-mediated, HeLa cells were incubated with 36 at a concentration of 100 ng mL^–1 for 5 h and lysed.
The cell lysate was incubated with streptavidin-coupled sepharose beads, and bound proteins were eluted, digested and identified by LC-MS/MS.
Streptavidin-Pull-down with Ratjadone-biotin and identification of exportin by LC-MSMS A chemical pull down was performed to verify binding of ratjadone to Crm1. HeLa cells were treated with ratjadone-biotin, ratjadone or both at 0.1μg/ml final concentration for 5h. Cells were detached by scraping, washed twice in PBS and lysed in MPER-buffer (Thermo Fisher, Waltham, USA) supplemented with complete protease inhibitor (Roche, Mannheim, Germany). After 5min incubation on ice the lysate was centrifuged (20min, 13000rpm, 4°C) and the supernatant was incubated with streptavidin sepharose high performance (GE healthcare, Freiburg, Germany) overnight at 4°C. The next day beads were washed twice with PBS and resuspended in elution buffer (Roth) and heated to 95°C for 10min. 5% were tested on WesternBlot with a biotin-specific antibody.
Figure S12: Gel of α-Streptavidin pulldown experiment: Identification of protein band in the eluat of Biotin-PEG3-16S- […]

KB-3.1 cells = test: Flow cytometry, fluorescence intensity per cell; format: cell-based, human; conditions: KB-3.1, 1 µM, 30 min, 37 °C
Description: Analysis of cell labeling with fluorescein-labeled conjugates
All cell lines were maintained as recommended by the American Type Culture Collection in DMEM or RPMI
containing 5% glutamine (Thermo Fisher Scientific, Waltham, USA) supplemented with 10% FBS (Thermo
Fisher Scientific, Waltham, USA). For flow cytrometric analysis cells were detached by trypsin and the
density was adjusted to 2 x 10^6 cells/ml. The cell suspension was incubated with compounds at 1µM final
concentration for 30min at 37°C, followed by two washing steps in PBS. For analysis of fluorescein intensity
a LSRFortessa™ with FACSDiva™ software (BD Biosciences, Heidelberg, Germany) with the 488nm laser in
combination with 525/50nm band pass filter was used. Data was evaluated using FlowJo software
(FLOWJO LLC, Oregon, US).

folate receptor-α, FRα = molecular target: folate receptor-α, FRα; set-up: method as in ref 31 = [31]; Lu Y. Low P. S. Adv. Drug Delivery Rev. 2012 64 342 352; conditions: read-out: folate affinity of the receptors; cited from earlier work

T1 sequence (O14980 whole entry, the tested form may be a part): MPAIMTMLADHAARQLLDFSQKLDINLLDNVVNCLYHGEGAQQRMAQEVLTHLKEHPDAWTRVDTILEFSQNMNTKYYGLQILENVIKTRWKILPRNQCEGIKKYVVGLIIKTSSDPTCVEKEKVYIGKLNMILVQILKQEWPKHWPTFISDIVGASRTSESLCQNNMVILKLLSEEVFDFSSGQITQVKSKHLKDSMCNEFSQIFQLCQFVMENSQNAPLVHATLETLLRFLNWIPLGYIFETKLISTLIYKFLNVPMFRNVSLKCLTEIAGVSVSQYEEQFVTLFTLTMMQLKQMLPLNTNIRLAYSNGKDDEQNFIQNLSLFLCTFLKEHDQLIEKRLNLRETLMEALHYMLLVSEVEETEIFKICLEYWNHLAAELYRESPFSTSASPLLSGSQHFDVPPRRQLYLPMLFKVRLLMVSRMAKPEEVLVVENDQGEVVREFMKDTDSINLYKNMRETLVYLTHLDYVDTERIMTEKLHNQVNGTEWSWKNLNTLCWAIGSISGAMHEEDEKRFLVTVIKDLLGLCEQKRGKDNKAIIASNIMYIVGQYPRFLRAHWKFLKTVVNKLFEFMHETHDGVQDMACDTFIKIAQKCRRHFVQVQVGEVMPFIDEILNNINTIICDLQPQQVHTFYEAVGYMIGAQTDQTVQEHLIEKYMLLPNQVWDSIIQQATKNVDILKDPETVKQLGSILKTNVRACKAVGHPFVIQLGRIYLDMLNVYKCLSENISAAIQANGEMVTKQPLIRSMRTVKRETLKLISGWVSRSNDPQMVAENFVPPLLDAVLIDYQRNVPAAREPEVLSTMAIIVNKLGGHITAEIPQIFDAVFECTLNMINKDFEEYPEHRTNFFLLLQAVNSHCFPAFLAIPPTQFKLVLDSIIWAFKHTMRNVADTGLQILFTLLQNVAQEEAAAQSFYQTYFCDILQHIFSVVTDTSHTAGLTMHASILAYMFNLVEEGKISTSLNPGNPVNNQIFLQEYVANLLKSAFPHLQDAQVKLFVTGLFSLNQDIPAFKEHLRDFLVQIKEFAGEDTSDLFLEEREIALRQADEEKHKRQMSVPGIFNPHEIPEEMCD

## CCC(=C/[C@H](C)C/C=C/C(C)=C/[C@@H](C)C(=O)[C@@H](C)[C@H](O)[C@@H](C)C/C(C)=C/C(=O)O)/C=C/[C@@H]1OC(=O)C=C[C@@H]1C [Compound 5, leptomycin B]
[1]
  outcome of early clinical trials: failed due to its high systemic toxicity

## CCC(=C/C(C)C)/C=C/[C@H]1CC=CC(=O)O1 [Compound 8]
Nuclear export
  concentration at which nuclear export is inhibited: 25 nM

## CC=CC1OC(C(C=CC=C(C)CC(C)C=C(C)C=CC2CC=CC(=O)O2)NC(=O)OCCc2cn(CCOCCOCCOCCNC(=O)CCCCC3SCC4NC(=O)NC43)nn2)CC(O)C1C (stereo not drawn) [Compound 36, biotin-PEG3-16S-aminoratjadone]
CRM1 [2]
  IC50: 152 nM
CRM1 [3]
  CRM1 identified in streptavidin pull-down: clearly identified in this manner and strongly enriched

## O=C1OC2(c3ccc(O)cc3Oc3cc(O)ccc32)c2ccccc21 [fluorescein]
KB-3.1 cells
  fluorescence intensity per cell: did not label the cells
